According to patent US8318980B2, “UV absorbing compounds” (Fujifilm Manufacturing Europe B.V., priority 2007, dated 2012):
“Also recorded” adds a separate entry of the source.

Experiments:
[1] = Heat stability test (UV-absorption left after storage at 50° C.); assay type: physicochemical; settings: for Heat stability: UV-absorption left after 5 days: 5 days at 50° C. in the dark; for Heat stability: UV-absorption left after 5 days / Heat stability: UV-absorption left after 50 days / Heat stability: UV-absorption left after 100 days: 1.5% in C12-C15 alkyl benzoate oil (compound 12: 5% in water), 375 nm versus sample stored at room temperature; for Heat stability: UV-absorption left after 50 days: 50 days at 50° C. in the dark; for Heat stability: UV-absorption left after 100 days: 100 days at 50° C. in the dark; for heat stability, in words: in C12-C15 alkylbenzoate oils
Protocol: Hereto, 1.5% solutions were prepared of compounds 4-11 and 13 in C12-C15 alkyl benzoate oil. […] The solutions were stored in closed vessels at 50° C. in the dark. After 5, 50 and 100 days, the UV-absorption of a diluted sample was measured at 375 nm comparative to a corresponding sample stored at room temperature. The UV-absorption left after each time span is shown in Table 4 indicated by + and − signs. ++ means >95% left, +− implies between 50-95% left, − indicates <50% left.

[2] = system: human skin; experiment: Skin penetration test in diffusion cell; assay type: in vitro ADME; settings: for penetration into or through the skin (UV analysis of DMSO skin extracts), in words / penetration through the skin (UV-analysis of collected receptor fluids), in words: human skin, diffusion cell; for penetration through the skin (UV-analysis of collected receptor fluids), in words: 20 hrs
Protocol: The skin-penetration was evaluated based on the same method described on page 21 of WO2006/009451. FIG. 2 is a drawing of the skin penetration test equipment, wherein (1) indicates the position of the test sample (donor compound), (2) an ⅛″ OD× 1/32″ wall tubing, (3) the receptor input, (4) the receptor compartment and (5) the compound and receptor output that is subjected to analysis.
A compound 3 donor solution was prepared by dissolving 30 mg of compound 3 in 4 ml EtOH and 7 ml phosphate buffer (PBS) at pH 7.4. Compound 4, 6, 7, 8 and 9 donor solutions were prepared by dispersing 80 mg of these compounds in olive oil.
For each compound 4 pieces of human skin (Ø ca 3 cm, mostly epidermis) were applied on a dialysis membrane and mounted into the diffusion cell shown in the FIG. 2. The figure is a schematic drawing of the diffusion cell, wherein is indicated 1: donor compound, 2: receptor compartment, 3: receptor input, 4: compound and receptor output for analysis, 5: ⅛″ OD× 1/32″ wall tubing. The cells were mounted on a temperature controlling and stirring device. The temperature was kept at 37°. The receptor fluid was a PBS buffer. The receptor compartment was stirred magnetically. 400 μl of the donor solution was applied. The receptor fluid flowing at a speed of 1 ml/hr was collected into glass tubes (1 tube/2 hrs). After 20 hrs the penetration experiment was terminated.
Furthermore the skin parts were extracted with DMSO to dissolve any UV-absorber in the epidermis. The extracts were analysed by UV.

[3] = Solubility test in C12-C15 alkyl benzoate oil (Finsolv TN); assay type: physicochemical; design: key to Solubility in Finsolv TN, dissolved amount (m/m %) 1% / Solubility in Finsolv TN, dissolved amount (m/m %) 5% / Solubility in Finsolv TN, dissolved amount (m/m %) 20% / Solubility in Finsolv TN, dissolved amount (m/m %) 50% / Solubility in Finsolv TN, dissolved amount (m/m %) 80% / Solubility in Finsolv TN, dissolved amount (m/m %) 90%: +=well-soluble; −=not soluble; settings: dissolved at 80° C. for 1 hour, cooled to room temperature, inspected after 24 hours; for Solubility in Finsolv TN, dissolved amount (m/m %) 1%: 1% m/m; for Solubility in Finsolv TN, dissolved amount (m/m %) 5%: 5% m/m; for Solubility in Finsolv TN, dissolved amount (m/m %) 20%: 20% m/m; for Solubility in Finsolv TN, dissolved amount (m/m %) 50%: 50% m/m; for Solubility in Finsolv TN, dissolved amount (m/m %) 80%: 80% m/m; for Solubility in Finsolv TN, dissolved amount (m/m %) 90%: 90% m/m
Protocol: The aminobutadiene compounds according to the present invention have an optimised solubility for cosmetic oils. […] In Table 3, the solubility of compounds 4, 12 and 13 is shown at various concentrations (+=well-soluble; -=not soluble). The compounds were dissolved at 80° C. while stirring for 1 hour and cooled down to room temperature. After 24 hours the solutions were inspected for any precipitates or crystals.

SMILES | Heat stability: UV-absorption left after 5 days [1] | Heat stability: UV-absorption left after 50 days [1] | Heat stability: UV-absorption left after 100 days [1] | Solubility in Finsolv TN, dissolved amount (m/m %) 1% [3] | Solubility in Finsolv TN, dissolved amount (m/m %) 5% [3] | Solubility in Finsolv TN, dissolved amount (m/m %) 20% [3] | Solubility in Finsolv TN, dissolved amount (m/m %) 50% [3] | Solubility in Finsolv TN, dissolved amount (m/m %) 80% [3] | Solubility in Finsolv TN, dissolved amount (m/m %) 90% [3] | heat stability, in words [1] | penetration into or through the skin (UV analysis of DMSO skin extracts), in words [2] | penetration through the skin (UV-analysis of collected receptor fluids), in words [2] | Presence in receptor fluid after 6 h ([2]; human skin (mostly epidermis), 37°, PBS receptor fluid, compound 3 donor in EtOH/PBS pH 7.4, others dispersed in olive oil, UV-analysis) | Presence in skin extract ([2]; skin parts extracted with DMSO after the penetration experiment, UV analysis)
CCCCCCCCOC(=O)C(=CC=CN(CCCC)CCCCCCN(C=CC=C(C(=O)OCCCCCCCC)S(=O)(=O)c1ccccc1)CCCCCCN(C=CC=C(C(=O)OCCCCCCCC)S(=O)(=O)c1ccccc1)CCCC)S(=O)(=O)c1ccccc1 [Compound 6] | ++ (++ means >95% left) | ++ (++ means >95% left) | ++ (++ means >95% left) |  |  |  |  |  |  | very heat stable | do not penetrate into or through the skin | no penetration |  | 
CCCCCCCCOC(=O)C(=CC=CN(CCN(CCN(C=CC=C(C(=O)OCCCCCCCC)S(=O)(=O)c1ccccc1)Cc1ccccc1)CCN(C=CC=C(C(=O)OCCCCCCCC)S(=O)(=O)c1ccccc1)Cc1ccccc1)Cc1ccccc1)S(=O)(=O)c1ccccc1 [Compound 7] | ++ (++ means >95% left) | ++ (++ means >95% left) | ++ (++ means >95% left) |  |  |  |  |  |  | very heat stable | do not penetrate into or through the skin | no penetration |  | 
CCCCCCCCOC(=O)C(=CC=CN(CCCN(CCCCN(CCCN(C=CC=C(C(=O)OCCCCCCCC)S(=O)(=O)c1ccccc1)Cc1ccccc1)CCCN(C=CC=C(C(=O)OCCCCCCCC)S(=O)(=O)c1ccccc1)Cc1ccccc1)CCCN(C=CC=C(C(=O)OCCCCCCCC)S(=O)(=O)c1ccccc1)Cc1ccccc1)Cc1ccccc1)S(=O)(=O)c1ccccc1 [Compound 8] | ++ (++ means >95% left) | ++ (++ means >95% left) | ++ (++ means >95% left) |  |  |  |  |  |  | very heat stable | do not penetrate into or through the skin | no penetration |  | 
CC(C)OC(=O)C(=CC=CN(CCCCCCN(C=CC=C(C(=O)OC(C)C)S(=O)(=O)c1ccccc1)Cc1ccccc1)CCCCCCN(C=CC=C(C(=O)OC(C)C)S(=O)(=O)c1ccccc1)Cc1ccccc1)S(=O)(=O)c1ccccc1 [Compound 17] | ++ (++ means >95% left) | ++ (++ means >95% left) | ++ (++ means >95% left) | − | − | − | − | − | − |  |  |  |  | 
CCCCCCCCOC(=O)C(=CC=CN(C(C)=O)c1ccccc1)S(=O)(=O)c1ccccc1 [aminobutadiene 3, reference compound] |  |  |  |  |  |  |  |  |  |  | observed inside the skin sample | penetration | + (a ‘+’ means that more than 50% of the substance penetrates the skin) | + (a ‘+’ means that more than 50% of the substance penetrates the skin)

Continued, in another order:

Heat stability: UV-absorption left after 5 days [1] | Heat stability: UV-absorption left after 50 days [1] | Heat stability: UV-absorption left after 100 days [1] | Solubility in Finsolv TN, dissolved amount (m/m %) 1% [3] | Solubility in Finsolv TN, dissolved amount (m/m %) 5% [3] | Solubility in Finsolv TN, dissolved amount (m/m %) 20% [3] | Solubility in Finsolv TN, dissolved amount (m/m %) 50% [3] | Solubility in Finsolv TN, dissolved amount (m/m %) 80% [3] | Solubility in Finsolv TN, dissolved amount (m/m %) 90% [3] | SMILES | heat stability, in words [1] | penetration into or through the skin (UV analysis of DMSO skin extracts), in words [2] | penetration through the skin (UV-analysis of collected receptor fluids), in words [2] | Presence in receptor fluid after 6 h ([2]; human skin (mostly epidermis), 37°, PBS receptor fluid, compound 3 donor in EtOH/PBS pH 7.4, others dispersed in olive oil, UV-analysis) | Presence in skin extract ([2]; skin parts extracted with DMSO after the penetration experiment, UV analysis)
++ (++ means >95% left) | +− (+− implies between 50-95% left) | +− (+− implies between 50-95% left) |  |  |  |  |  |  | CCCCCCCCOC(=O)/C(=C/C=C/NCCCCCCN(/C=C\C=C(/C(=O)OCCCCCCCC)S(=O)(=O)c1ccccc1)CCCCCCN/C=C/C=C(\C(=O)OCCCCCCCC)S(=O)(=O)c1ccccc1)S(=O)(=O)c1ccccc1 [Compound 5, reference compound] |  |  |  |  | 
++ (++ means >95% left) | +− (+− implies between 50-95% left) | − (− indicates <50% left) |  |  |  |  |  |  | CCCCCCCCOC(=O)C(=CC=CNCCN(CCNC=CC=C(C(=O)OCCCCCCCC)S(=O)(=O)c1ccccc1)CCNC=CC=C(C(=O)OCCCCCCCC)S(=O)(=O)c1ccccc1)S(=O)(=O)c1ccccc1 [Compound 10, reference compound] |  |  |  |  | 
++ (++ means >95% left) | +− (+− implies between 50-95% left) | − (− indicates <50% left) |  |  |  |  |  |  | CCCCCCCCOC(=O)C(=CC=CNCCCN(CCCCN(CCCNC=CC=C(C(=O)OCCCCCCCC)S(=O)(=O)c1ccccc1)CCCNC=CC=C(C(=O)OCCCCCCCC)S(=O)(=O)c1ccccc1)CCCNC=CC=C(C(=O)OCCCCCCCC)S(=O)(=O)c1ccccc1)S(=O)(=O)c1ccccc1 [Compound 11, reference compound] |  |  |  |  | 
++ (++ means >95% left) | ++ (++ means >95% left) | ++ (++ means >95% left) | + | + | + | − | − | − | CCCCCCCCOC(=O)C(=CC=CN(CCCC)CCN(C=CC=C(C(=O)OCCCCCCCC)S(=O)(=O)c1ccccc1)CCN(C=CC=C(C(=O)OCCCCCCCC)S(=O)(=O)c1ccccc1)CCCC)S(=O)(=O)c1ccccc1 [Compound 13] | very heat stable; also recorded: good heat stability |  |  |  | 
++ (++ means >95% left) | ++ (++ means >95% left) | ++ (++ means >95% left) | + | − | − | − | − | − | CCCCC(CC)COC(=O)C(=CC=CN(CCCCCCN(C=CC=C(C(=O)OCC(CC)CCCC)S(=O)(=O)c1ccccc1)Cc1ccccc1)CCCCCCN(C=CC=C(C(=O)OCC(CC)CCCC)S(=O)(=O)c1ccccc1)Cc1ccccc1)S(=O)(=O)c1ccccc1 (centres unmarked) [Compound 18] |  |  |  |  | 
++ (++ means >95% left) | ++ (++ means >95% left) | ++ (++ means >95% left) | + | + | + | + | + | + | CCCCCCCCCCCCCCCCCCOC(=O)C(=CC=CN(CCCCCCN(C=CC=C(C(=O)OCCCCCCCCCCCCCCCCCC)S(=O)(=O)c1ccccc1)Cc1ccccc1)CCCCCCN(C=CC=C(C(=O)OCCCCCCCCCCCCCCCCCC)S(=O)(=O)c1ccccc1)Cc1ccccc1)S(=O)(=O)c1ccccc1 [Compound 19] |  |  |  |  | 
